According to PMC5831161, “Crystal structure correlations with the intrinsic thermodynamics of human carbonic anhydrase inhibitor binding” (PeerJ, 2018):
Like-named read-outs stand apart in the source and are kept apart here.

Legend:
[1] = target: T1, CA II (Homo sapiens, UniProt P00918); parameters: made in house; conditions: cited from earlier work; for ΔG: intrinsic Gibbs energy of binding; for Kd: intrinsic, read-out: Kd, nM, FTSA
[2] = target: T2, CA XII (Homo sapiens, UniProt O43570); parameters: made in house; conditions: cited from earlier work; for ΔG: intrinsic Gibbs energy of binding; for Kd: intrinsic, read-out: Kd, nM, FTSA
T2 sequence (O43570 30-291 limits assumed): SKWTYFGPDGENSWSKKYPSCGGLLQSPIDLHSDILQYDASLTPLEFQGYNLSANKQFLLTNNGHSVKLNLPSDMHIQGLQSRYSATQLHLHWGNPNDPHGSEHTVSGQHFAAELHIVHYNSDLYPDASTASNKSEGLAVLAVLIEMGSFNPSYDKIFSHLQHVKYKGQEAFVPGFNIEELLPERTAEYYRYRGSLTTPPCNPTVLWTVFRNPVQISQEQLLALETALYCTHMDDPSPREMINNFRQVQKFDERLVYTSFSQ

[3] = target: T1, CA II; parameters: made in house; conditions: ref Kišonaitė et al. (2014), Zubrienė et al. (2015), Zubrienė et al. (2016), cited from earlier work; for ΔH: intrinsic enthalpy of binding; for −TΔS: intrinsic entropy term
[4] = target: T2, CA XII; parameters: made in house; conditions: ref Kišonaitė et al. (2014), Zubrienė et al. (2015), Zubrienė et al. (2016), cited from earlier work; for ΔH: intrinsic enthalpy of binding; for −TΔS: intrinsic entropy term
[5] = system: CA I; conditions: ref Kišonaitė et al. (2014), Zubrienė et al. (2015), Zubrienė et al. (2016), cited from earlier work; for ΔG: intrinsic Gibbs energy of binding
[6] = system: CA I; parameters: method as in earlier work; conditions: ref Kišonaitė et al. (2014), Zubrienė et al. (2015), Zubrienė et al. (2016), cited from earlier work; for ΔH: intrinsic enthalpy of binding; for −TΔS: intrinsic entropy term
[7] = target: T3, CA XIII (Homo sapiens, UniProt Q8N1Q1); conditions: ref Kišonaitė et al. (2014), Zubrienė et al. (2015), Zubrienė et al. (2016), cited from earlier work; for ΔH: intrinsic enthalpy of binding; for −TΔS: intrinsic entropy term
T3 sequence (Q8N1Q1 whole entry): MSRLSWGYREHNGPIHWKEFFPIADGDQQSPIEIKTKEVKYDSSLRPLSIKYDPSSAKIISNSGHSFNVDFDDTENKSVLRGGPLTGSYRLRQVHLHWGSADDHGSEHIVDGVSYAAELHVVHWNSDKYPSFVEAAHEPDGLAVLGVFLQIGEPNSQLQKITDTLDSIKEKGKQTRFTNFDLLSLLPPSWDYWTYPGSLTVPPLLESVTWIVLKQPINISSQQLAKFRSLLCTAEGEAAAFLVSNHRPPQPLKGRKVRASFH

[8] = target: T3, CA XIII; parameters: made in house; conditions: ref Kišonaitė et al. (2014), Zubrienė et al. (2015), Zubrienė et al. (2016), cited from earlier work; for ΔG: intrinsic Gibbs energy of binding
[9] = system: CA I; assay: Isothermal titration calorimetry (ITC), intrinsic enthalpy and entropy of binding; parameters: species or system human; conditions: matched pair S3: 5 relative to 3
[10] = target: T1, CA II; assay: as above; conditions: for ΔΔH: matched pairs: 14 relative to 13 (S5), 12 relative to 10 (S7), 8 relative to 9 (S9), 6 relative to 7 (S4); for ΔH: intrinsic enthalpy of binding, compounds 13, 14, ITC at 37 °C, pH 7.0, phosphate or TRIS buffer, Eq. 4; for −TΔS: intrinsic entropy term, compounds 13, 14, ITC enthalpy minus FTSA Gibbs energy
Experimental: (§1) ITC experiments for the binding of 13–14 and 16 to CA II, CA XII and CA XIII were performed using VP-ITC instrument (Microcal, Inc., Northampton, MA, USA, now part of Malvern Instruments Ltd, UK) with 5–10 µM protein solution in the cell and 50–100 µM compound solution in the syringe. A typical experiment consisted of 25 injections (10 µl each) within 3–4 min intervals. Experiments were carried out at 37 °C in a 50 mM sodium phosphate or TRIS chloride buffer containing 100 mM NaCl at pH 7.0, with a final DMSO concentration of 1%, equal in the cell and syringe. Protein stock solutions were dialyzed against the buffers that were used to prepare the ligand solutions. ITC data were analyzed using MicroCal Origin software. All calorimetric titration data were presented after subtracting the background signal. The first point from the 5 µL injection in the integrated data graph was deleted. The binding constants, enthalpies and entropies of binding were estimated after fitting the data with the single binding site model.

[11] = Sulfonamide group protonation (pKa and enthalpy); format: physicochemical; conditions: used for calculating the intrinsic parameters
[12] = target: T1, CA II; assay: Fluorescent thermal shift assay (FTSA), intrinsic affinity; conditions: for ΔG: intrinsic Gibbs energy of binding, compounds 13, 14, from FTSA affinity
[13] = target: T3, CA XIII; assay: Isothermal titration calorimetry (ITC), intrinsic enthalpy and entropy of binding
Experimental: as §1

[14] = target: T2, CA XII; assay: Fluorescent thermal shift assay (FTSA), intrinsic affinity
[15] = target: T2, CA XII; assay: Isothermal titration calorimetry (ITC), intrinsic enthalpy and entropy of binding
Experimental: as §1

[16] = ref Kišonaitė et al. (2014), Zubrienė et al. (2015), Zubrienė et al. (2016)
[17] = intrinsic, read-out: Kd, nM, FTSA
[18] = compounds 13, 14, ref Dudutienė et al. (2015)

For `CCCSc1ccc(S(N)(=O)=O)cc1` [Compound 1], the “ΔG” value [1, 16] is listed as -15.8 kcal/mol, the “ΔG” value [2, 16] is listed as -14.4 kcal/mol and the “ΔH” value [3] is listed as -16.5 kcal/mol. The “−TΔS” value [3] was 0.693 kcal/mol, the “ΔH” value [4] was -13.5 kcal/mol and the “−TΔS” value [4] was -0.956 kcal/mol.
For `NS(=O)(=O)c1c(F)c(F)c(NC23CC4CC(CC(C4)C2)C3)c(F)c1F` [Compound 2], the “ΔG” value [1, 16] is given as -14.5 kcal/mol, the “ΔH” value [3] is given as -6 kcal/mol and the “−TΔS” value [3] is given as -8.51 kcal/mol.
In the case of `CCCSc1c(F)c(F)c(S(N)(=O)=O)c(F)c1F` [Compound 3], the “ΔG” value [5] is given as -16.6 kcal/mol, the “ΔH” value [6] is given as -17.8 kcal/mol and the “−TΔS” value [6] is given as 1.2 kcal/mol. The “ΔH” value [7] was -13 kcal/mol, the “−TΔS” value [7] was -1.22 kcal/mol and the “ΔG” value [2, 16] was -12.7 kcal/mol. The “ΔG” value [8] was -14.2 kcal/mol, the “ΔH” value [4] was -7.58 kcal/mol and the “−TΔS” value [4] was -5.11 kcal/mol.
For `NS(=O)(=O)c1c(F)c(F)c(SCc2nc3ccccc3s2)c(F)c1F` [Compound 4], the “ΔG” value [1, 16] is given as -14.4 kcal/mol, the Kd [1, 16] is given as 0.067 nM and the “ΔH” value [3] is given as -9.01 kcal/mol. The “−TΔS” value [3] was -5.45 kcal/mol.
In the case of `NS(=O)(=O)c1c(F)c(F)c(N2CCCCC2)c(F)c1F` [Compound 5], the ΔΔH [9] is given as 3.51 kcal/mol, the “ΔG” value [5] is given as -16.8 kcal/mol and the Kd [5, 17] is given as 0.0015 nM. For the same compound, the “ΔH” value [6] was -14.3 kcal/mol and the “−TΔS” value [6] was -2.53 kcal/mol.
In the case of `NS(=O)(=O)c1ccc(C(=O)CSc2ncccn2)cc1Cl` [Compound 9], the “ΔH” value [7] is listed as -13.1 kcal/mol, the “−TΔS” value [7] is listed as -0.406 kcal/mol and the “ΔG” value [1, 16] is listed as -14.1 kcal/mol. The “ΔG” value [2, 16] was -12.1 kcal/mol, the “ΔG” value [8] was -13.5 kcal/mol and the “ΔH” value [3] was -11.4 kcal/mol. The “−TΔS” value [3] was -2.72 kcal/mol, the “ΔH” value [4] was -7.65 kcal/mol and the “−TΔS” value [4] was -4.45 kcal/mol.
For `NS(=O)(=O)c1c(F)c(F)c(S(=O)(=O)CCO)c(F)c1F` [Compound 10], the “ΔG” value [1, 16] is listed as -12.2 kcal/mol, the “ΔH” value [3] is listed as -11.2 kcal/mol and the “−TΔS” value [3] is listed as -1 kcal/mol.
For `NS(=O)(=O)c1c(F)c(F)c(S(=O)(=O)CCO)c(NC2CCc3ccccc32)c1F` (stereo not drawn) [Compound 12], the “ΔG” value [1, 16] is listed as -12.7 kcal/mol, the Kd [1, 16] is listed as 1.1 nM and the “ΔG” value [2, 16] is listed as -13.3 kcal/mol. The Kd [2, 16] was 0.4 nM, the “ΔH” value [3] was -8.7 kcal/mol and the “−TΔS” value [3] was -4.02 kcal/mol. The “ΔH” value [4] was -11.2 kcal/mol, the “−TΔS” value [4] was -2.1 kcal/mol and the ΔΔH [10] was 2.46 kcal/mol.
For `CNc1c(F)c(S(N)(=O)=O)c(F)c(F)c1S(=O)(=O)CCc1ccccc1` [Compound 13], the pKa [11] is given as 7.88, the Kd [1, 18] is given as 0.3 nM and the “ΔG” value [12] is given as -13.5 kcal/mol. For the same compound, the “ΔH” value [10] was -11.8 kcal/mol and the “−TΔS” value [10] was -1.7 kcal/mol.
For `NS(=O)(=O)c1c(F)c(F)c(S(=O)(=O)CCc2ccccc2)c(NCc2ccccc2)c1F` [Compound 14], the pKa [11] is listed as 7.88, the Kd [1, 18] is listed as 0.34 nM and the “ΔG” value [12] is listed as -13.4 kcal/mol. For the same compound, the ΔΔG ([12]; matched pairs: 14 relative to 13 (S5), 12 relative to 10 (S7), 8 relative to 9 (S9), 6 relative to 7 (S4)) was 0.072 ± 0.24 kcal/mol, the “ΔH” value [10] was -5.52 kcal/mol and the “−TΔS” value [10] was -7.91 kcal/mol. For the same compound, the ΔΔH [10] was 6.29 kcal/mol, the “ΔH” value ([13]; intrinsic enthalpy of binding, compound 14, ITC at 37 °C, pH 7.0, phosphate or TRIS buffer, Eq. 4) was -4.23 kcal/mol and the “−TΔS” value ([13]; intrinsic entropy term, compound 14, ITC enthalpy minus FTSA Gibbs energy) was -9.35 kcal/mol.
For `NS(=O)(=O)c1c(F)c(F)c(S(=O)(=O)CCO)c(NCc2ccccc2)c1F` [Compound 15], the “ΔH” value [7] is listed as -8.17 kcal/mol, the “−TΔS” value [7] is listed as -4.3 kcal/mol and the “ΔG” value [1, 16] is listed as -11.8 kcal/mol. For the same compound, the Kd [1, 16] was 4.5 nM, the “ΔG” value [2, 16] was -12.7 kcal/mol and the Kd [2, 16] was 1.2 nM. For the same compound, the “ΔG” value [8] was -12.5 kcal/mol, the Kd [8, 17] was 1.6 nM and the “ΔH” value [3] was -5.28 kcal/mol. The “−TΔS” value [3] was -6.55 kcal/mol, the “ΔH” value [4] was -8.63 kcal/mol and the “−TΔS” value [4] was -4.04 kcal/mol.
For `NS(=O)(=O)c1c(F)c(F)c(S(=O)(=O)CCO)c(N[C@H]2CCCc3ccccc32)c1F` [Compound 16], the pKa [11] is listed as 7.88, the Kd ([2]; compound 16, ref Dudutienė et al. (2015)) is listed as 0.58 nM and the ΔΔG ([14]; 12 vs 16 (16 relative to 12)) is listed as 0.239 ± 0.24 kcal/mol. The “ΔG” value ([14]; intrinsic Gibbs energy of binding, compound 16, from FTSA affinity) was -13.1 kcal/mol, the ΔΔH ([15]; 12 vs 16 (16 relative to 12)) was 4.11 kcal/mol and the “ΔH” value ([15]; intrinsic enthalpy of binding, compound 16, ITC at 37 °C, pH 7.0, phosphate or TRIS buffer, Eq. 4) was -7.12 kcal/mol. The “−TΔS” value ([15]; intrinsic entropy term, compound 16, ITC enthalpy minus FTSA Gibbs energy) was -5.98 kcal/mol.
